Drawing on patent publication US11066414B2, “Cot modulators and methods of use thereof” (Gilead Sciences, Inc., priority 2015, dated 2021), this text covers EC50 for 18 molecules.

Usually EC50 stands for the midpoint of the concentration-response curve.

In one test the test system is TNFα. The test can be described thus: Cot Monocyte TNFα Cell Based Assay. To be noted: Homo sapiens, Monocyte, read-out: EC50 TNF, LPS-stimulated human monocytes, TNFα.
As for `CCN1CCC(n2cc(C(Nc3cc(Cl)c4ncc(C#N)c(Nc5ccc(F)c(Cl)c5)c4c3)c3ncccn3)nn2)CC1` (stereo not drawn) [Example 367, 8-chloro-4-((3-chloro-4-fluorophenyl)amino)-6-(((1-(1-ethylpiperidin-4-yl)-1H-1,2,3-triazol-4-yl)(pyrimidin-2-yl)methyl)-amino)quinoline-3-carbonitrile], the 50% effective concentration (EC50) turned out to be 338 nM.

On to `CCN1CCC(n2cc([C@@H](Nc3cc(Cl)c4ncc(C#N)c(Nc5ccc(F)c(Cl)c5)c4c3)c3cccs3)nn2)CC1` [Example 380, (R)-8-chloro-4-((3-chloro-4-fluoro-phenyl)amino)-6-(((1-(1-ethylpiperidin-4-yl)-1H-1,2,3-triazol-4-yl)(thiophen-2-yl)methyl)amino)quinoline-3-carbonitrile], for which the EC50 came to 609 nM.

With `CCN1CCC(n2cc([C@@H](Nc3cc(Cl)c4ncc(C#N)c(Nc5ccc(F)c(Cl)c5)c4c3)c3ccc(Cl)s3)nn2)CC1` [Example 382, (R)-8-chloro-4-((3-chloro-4-fluoro-phenyl)amino)-6-(((5-chlorothiophen-2-yl)(1-(1-ethylpiperidin-4-yl)-1H-1,2,3-triazol-4-yl)methyl)amino)quinoline-3-carbonitrile], the concentration for a half-maximal effect (EC50) was 768 nM.

Regarding `Cc1nc(F)ccc1[C@H](Nc1cc(Cl)c2ncc(C#N)c(N[C@H](CCC#N)c3ccccc3)c2c1)c1cn(C2CC2)nn1` [Example 431, 8-chloro-4-(((R)-3-cyano-1-phenyl-propyl)amino)-6-(((S)-(1-cyclopropyl-1H-1,2,3-triazol-4-yl)(6-fluoro-2-methylpyridin-3-yl)methyl)amino)-quinoline-3-carbonitrile], the EC50 came out at 21 nM.

Turning to `CC(C)(C)CNc1c(C#N)cnc2c(Br)cc(N[C@H](c3cn(C4(C(F)(F)F)CC4)nn3)c3cccc4ncsc34)cc12` [Example 439, (S)-6-((benzo[d]thiazol-7-yl(1-(1-(trifluoromethyl)cyclopropyl)-1H-1,2,3-triazol-4-yl)methyl)amino)-8-bromo-4-(neopentylamino)quinoline-3-carbonitrile], the concentration giving a half-maximal response (EC50) was determined as 299 nM.

Turning to `CC(C)(C)CNc1c(C#N)cnc2c(C#N)cc(N[C@H](c3cn(C4(CF)CC4)nn3)c3cccc4ncsc34)cc12` [Example 441, (S)-6-((benzo[d]thiazol-7-yl(1-(1-(fluoromethyl)cyclopropyl)-1H-1,2,3-triazol-4-yl)methyl)amino)-4-(neopentylamino)quinoline-3,8-dicarbonitrile], the EC50 came out at 26 nM.

With `Cc1nc(F)ccc1[C@H](Nc1cc(F)c2ncc(C#N)c(NCC(C)(C)C)c2c1)c1cn(C2(C#N)CC2)nn1` [Example 485, (S)-6-(((1-(1-cyanocyclopropyl)-1H-1,2,3-triazol-4-yl)(6-fluoro-2-methylpyridin-3-yl)methyl)amino)-8-fluoro-4-(neopentyl-amino)quinoline-3-carbonitrile], the EC50 is 29 nM.

Take `Cn1ccc2c([C@H](Nc3cc(Cl)c4ncc(C#N)c(NCC(C)(C)C)c4c3)c3cn(C4CC4)nn3)ccnc21` [Example 519, (S)-8-chloro-6-(((1-cyclopropyl-1H-1,2,3-triazol-4-yl)(1-methyl-1H-pyrrolo[2,3-b]pyridin-4-yl)methyl)amino)-4-(neopentylamino)quinoline-3-carbonitrile]: the half-maximal effective concentration (EC50) was 158 nM.

Consider `Cn1ncc2cccc([C@H](Nc3cc(C#N)c4ncc(C#N)c(NCC(C)(C)C)c4c3)c3cn(C4(C(F)(F)F)CC4)nn3)c21` [Example 526, (S)-6-(((1-methyl-1H-indazol-7-yl)(1-(1-(trifluoromethyl)cyclopropyl)-1H-1,2,3-triazol-4-yl)methyl)amino)-4-(neopentylamino)quinoline-3,8-dicarbonitrile], for which the EC50 came out at 73 nM.

With `Cn1ncc2c([C@H](Nc3cc(Cl)c4ncc(C#N)c(NCC(C)(C)C)c4c3)c3cn(C4(C(F)(F)F)CC4)nn3)cccc21` [Example 543, (S)-8-chloro-6-(((1-methyl-1H-indazol-4-yl)(1-(1-(trifluoromethyl)cyclopropyl)-1H-1,2,3-triazol-4-yl)methyl)amino)-4-(neopentylamino)quinoline-3-carbonitrile], the EC50 was determined as 422 nM.

In the case of `Cc1nc(F)ccc1[C@H](Nc1cc(Cl)c2ncc(C#N)c(N[C@H](C)C(C)(C)C)c2c1)c1cn(C2(C(F)(F)F)CC2)nn1` [Example 582, 8-chloro-4-(((R)-3,3-dimethylbutan-2-yl)amino)-6-(((S)-(6-fluoro-2-methylpyridin-3-yl)(1-(1-(trifluoromethyl)cyclopropyl)-1H-1,2,3-triazol-4-yl)methyl)amino)quinoline-3-carbonitrile], the concentration giving a half-maximal response (EC50) is 184 nM.

As for `Cc1nc(F)ccc1[C@H](Nc1cc(C#N)c2ncc(C#N)c(NC3CCCCC3)c2c1)c1cn(C2(C(F)(F)F)CC2)nn1` [Example 585, (S)-4-(cyclohexylamino)-6-(((6-fluoro-2-methylpyridin-3-yl)(1-(1-(trifluoromethyl)-cyclopropyl)-1H-1,2,3-triazol-4-yl)methyl)amino)quinoline-3,8-dicarbonitrile], the EC50 was 838 nM.

Turning to `Cc1nc(F)ccc1[C@H](Nc1cc(C#N)c2ncc(C#N)c(NCC(C)(C)C)c2c1)c1cn(C(C)(C)C)nn1` [Example 589, (S)-6-(((1-(tert-butyl)-1H-1,2,3-triazol-4-yl)(6-fluoro-2-methylpyridin-3-yl)methyl)amino)-4-(neopentylamino)quinoline-3,8-dicarbonitrile], the EC50 amounted to 34 nM.

Take `CC(C)(C)CNc1c(C#N)cnc2c(Cl)cc(N[C@H](c3cn(C4(C(F)(F)F)CC4)nn3)c3cccn4cncc34)cc12` [Example 599, (S)-8-chloro-6-((imidazo[1,5-a]pyridin-8-yl(1-(1-(trifluoromethyl)cyclopropyl)-1H-1,2,3-triazol-4-yl)methyl)amino)-4-(neopentylamino)quinoline-3-carbonitrile]: the EC50 worked out at 316 nM.

Regarding `Cc1nc(F)ccc1[C@H](Nc1cc(C#N)c2ncc(C#N)c(N[C@@H](c3ccccc3)C3CC3)c2c1)c1cn(C2(C(F)(F)F)CC2)nn1` [Example 613, 4-(((R)-cyclopropyl(phenyl)methyl)amino)-6-(((S)-(6-fluoro-2-methylpyridin-3-yl)(1-(1-(trifluoromethyl)cyclopropyl)-1H-1,2,3-triazol-4-yl)methyl)amino)quinoline-3,8-dicarbonitrile], the half-maximal effective concentration (EC50) worked out at 144 nM.

For the molecule `Cc1nc(F)ccc1[C@H](Nc1cc(C#N)c2ncc(C#N)c(NCC(C)(C)C#N)c2c1)c1cn(C2(C(F)(F)F)CC2)nn1` [Example 615, (S)-4-((2-cyano-2-methylpropyl)amino)-6-(((6-fluoro-2-methylpyridin-3-yl)(1-(1-(trifluoromethyl)cyclopropyl)-1H-1,2,3-triazol-4-yl)methyl)amino)quinoline-3,8-dicarbonitrile], the half-maximal effective concentration (EC50) came out at 588 nM.

The same test, now with this note: read-out: EC50 TNF; LPS-stimulated human monocytes, TNFα.
As to `CC(C)(C)N1CCC(n2cc([C@@H](Nc3cc(Cl)c4ncc(C#N)c(Nc5ccc(F)c(Cl)c5)c4c3)c3cccnc3)nn2)CC1` [Example 369, (S)-6-(((1-(1-(tert-butyl)piperidin-4-yl)-1H-1,2,3-triazol-4-yl)(pyridin-3-yl)methyl)amino)-8-chloro-4-((3-chloro-4-fluorophenyl)amino)quin-oline-3-carbonitrile], the EC50 was determined as 89 nM.

As to `CC(C)(C)CNc1c(C#N)cnc2c(C#N)cc(N[C@H](c3cn(C4(C(F)F)CC4)nn3)c3cccc4cnccc34)cc12` [Example 551], the EC50 is 27 nM.
